Values quoted from earlier work, collected in patent US20070287931A1, “Methods and systems for administering an appropriate pharmacological treatment to a patient for managing epilepsy and other neurological disorders” (priority 2006, published 2007).
Like-named read-outs stand apart in the source and are kept apart here.

Key:
seizure = conditions: intranasal
[1] = intranasal
[2] = for plasma concentration per daily dose of 1 mg/kg: per daily dose of 1 mg/kg; for plasma concentration per daily dose of 1 mg/kg of primidone: per daily dose of 1 mg/kg of primidone
sodium channels = conditions: in vitro
T-type Ca^2+ currents = conditions: in vitro
[3] = tested on: GABA/benzodiazepine receptor ionophore complex; conditions: in vitro
[4] = tested on: cultured mouse spinal cord neurons; conditions: 10-30 μg/mL
rat hippocampal slices = conditions: 10-30 μg/mL
[5] = tested on: dopaminergic and serotonergic neurotransmission; conditions: in vivo microdialysis
partial seizures = conditions: controlled trials, adjunctive therapy of partial seizures in adults, oral

## Cc1ncc2n1-c1ccc(Cl)cc1C(c1ccccc1F)=NC2 [Midazolam]
seizure
  time to terminate a seizure: 30 s
[1]
  KA (absorption rate constant): 2.46 h⁻¹
  tE1/2 (elimination half-life): 3.1 h

## O=C1NC(=O)C(c2ccccc2)(c2ccccc2)N1 [Phenyloin, diphenylhydantoin]
seizures
  concentrations giving chronic control of seizures: above 10 μg/ml
other
  concentrations at which toxic effects such as nystagmus develop: around 20 μg/ml

## CCC1(C)CC(=O)NC1=O (stereo not drawn) [ethosuximide, Ethosuximide]
[2]; long-term therapy
  plasma concentration per daily dose of 1 mg/kg: about 2 μg/ml

## CCC1(c2ccccc2)C(=O)NC(=O)NC1=O [phenobarbital, Phenobarbital]
[2]; long term therapy, adults
  plasma concentration per daily dose of 1 mg/kg: about 10 μg/ml
[2]; long term therapy
  plasma concentration per daily dose of 1 mg/kg of primidone: about 2 μg/ml

## CCC1(c2ccccc2)C(=O)NCNC1=O [primidone, Primidone]
[2]; long term therapy
  plasma concentration per daily dose of 1 mg/kg of primidone: about 1 μg/ml

## NS(=O)(=O)Cc1noc2ccccc12 [zonisamide, 1,2-benzisoxazole-3-methanesulfonamide]
Sodium channels
  effect on sodium channels: blocks sodium channels
T-type Ca^2+ currents
  effect on voltage-dependent, transient inward currents (T-type Ca2+ currents): reduces voltage-dependent, transient inward currents
[3]
  binding to the GABA/benzodiazepine receptor ionophore complex: binds to the GABA/benzodiazepine receptor ionophore complex in an allosteric fashion which does not produce changes in chloride flux
[4]
  postsynaptic GABA or glutamate responses: without affecting
  synaptically-driven electrical activity: suppresses synaptically-driven electrical activity
Rat hippocampal slices
  neuronal or glial uptake of [3H]-GABA: without affecting
[5]
  dopaminergic and serotonergic neurotransmission: facilitates both dopaminergic and serotonergic neurotransmission
Partial seizures
  effective doses: 100 to 600 mg/day
Carbonic anhydrase
  carbonic anhydrase inhibiting activity: weak
